Reference: US20110263696A1, “PROANTHOCYANIDINS FROM CINNAMON AND ITS WATER SOLUBLE EXTRACT INHIBIT TAU AGGREGATION” (priority 2007, published 2011)

Key:
Assay type in all cases: biochemical
FL-tau = molecular target: T1, FL-tau (Homo sapiens, UniProt P10636); test: Electron microscopy of FL-tau fibers; conditions: FL-tau 50 uM, heparin 0.1 mg/ml; trimer 200 uM (FIG. 3d)
T1 construct: full-length tau and an engineered truncation fragment of tau (tau187) were generated by over-expression of the recombinant human protein in bacteria; made in house; host or cells: bacteria
T1 sequence (P10636 1-441 isoform P10636-8): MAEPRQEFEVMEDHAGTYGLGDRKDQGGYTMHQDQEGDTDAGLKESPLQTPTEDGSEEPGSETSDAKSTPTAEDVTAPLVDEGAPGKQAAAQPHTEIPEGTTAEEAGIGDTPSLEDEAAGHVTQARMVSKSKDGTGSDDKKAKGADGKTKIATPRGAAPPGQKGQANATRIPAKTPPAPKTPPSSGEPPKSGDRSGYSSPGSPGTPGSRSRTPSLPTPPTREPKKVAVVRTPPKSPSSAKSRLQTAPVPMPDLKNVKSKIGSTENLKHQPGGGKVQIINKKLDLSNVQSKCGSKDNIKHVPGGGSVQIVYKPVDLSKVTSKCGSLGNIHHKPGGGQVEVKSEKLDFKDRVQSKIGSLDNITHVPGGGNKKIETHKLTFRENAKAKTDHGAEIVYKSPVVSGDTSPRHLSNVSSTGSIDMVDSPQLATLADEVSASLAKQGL
Method: FIG. 3. Proanthocyanidins inhibit tau aggregation. A) Turbidity assay. Aggregation of FL-tau (50 uM) was initiated with heparin (0.1 mg/ml) in 20 mM NaPO4, pH 7.0. Curve 1: no proanthocyanidin; Curve 2: 200 uM purified A-type trimer. B) After 45 min, reactions were centrifuged at 100,000 g×60 min. The amount of tau in the pellets (P) vs. supernatants (S) were examined by SDS-PAGE. Markers (top to bottom) are 97, 66, 45 kDa. C, D) EM after aggregation for 45 min. Scale bars=500 nm; C) no proanthocyanidin, D) 200 uM purified A-type trimer.
As shown by the data disclosed in the various figures, proanthocyanidins bind to tau and inhibit tau aggregation. […] In these experiments, heparin-induced aggregation of tau into PHF-like fibers is routinely monitored by four methods: 1) enhanced Thioflavin S fluorescence emission; 2) increased turbidity measured by OD350; 3) ultracentrifugation of sarkosyl-treated samples, and 4) electron microscopy. […] To ensure that proanthocyanidin molecules were not simply binding to and precipitating tau in a non-specific manner, the amount of tau that fractionated with the pellet vs. supernatant after high-speed ultracentrifugation was analyzed.

tau187 [1] = molecular target: T2, tau187 (Homo sapiens, UniProt P10636); test: Turbidity (OD350) assay of heparin-induced aggregation, tau187; conditions: trimer 12.5 uM as pure trimer or as whole extract (0.22 mg/mL CE); OD 350 (FIG. 17)
T2 construct: his; made in house; host or cells: bacteria
T2 sequence (P10636 572-758 limits assumed): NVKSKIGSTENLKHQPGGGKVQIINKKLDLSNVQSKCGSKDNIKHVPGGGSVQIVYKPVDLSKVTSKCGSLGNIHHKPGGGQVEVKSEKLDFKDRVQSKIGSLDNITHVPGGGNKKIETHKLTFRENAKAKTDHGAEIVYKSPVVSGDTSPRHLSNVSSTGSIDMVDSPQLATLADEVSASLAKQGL
Method: FIG. 15A. […] 50 μM Tau^187 was incubated with 0.11 mg/ml heparin (18 kDa) at 23° C. Aggregation was monitored by turbidity (OD350). Cinnamaldehyde was present at a final concentration of 0, 50 and 100 μM. FIG. 15B. Electron microscopy of tau fibers in the presence of cinnamaldehyde (CA). Tau fibers were visualized by electron microscopy after 5 hrs of aggregation in the presence of: 0 CA (left panel); B) 100 uM CA (right panel). […] FIG. 15 C. Trans-cinnamaldehyde chemical structure. FIG. 16A. […] 50 uM tau187 was incubated with 0.11 mg/mL heparin (18 kDa) at 23° C. Epicatechin was untreated, treated with 10 mM NH4OH for 10 min at 95° C. then neutralized, or treated with 100 U of mushroom tyrosinase (Sigma) for 10 min. Epicatechin was added to the reaction at a final concentration of 25 uM. Fiber formation was monitored by OD 350. FIG. 16B. epicatechin and catechin chemical structures. FIG. 17A. HPLC analysis of proanthocyanidin A-type trimer, A) purified or B) in whole cinnamon extract. The trimer corresponds to the major peak at ˜40 min. Areas underneath the peaks in panels A and B each correspond to 6150 pmoles. […] Fiber formation was monitored by OD 350. Concentrations of A-trimer in pure form and in whole cinnamon extract (CE) were normalized by absorbance measurements of the A-trimer resolved by HPLC. […]

tau187 [2] = molecular target: T2, tau187; test: Electron microscopy of tau187 fibers; conditions: tau187 50 uM, heparin 0.1 mg/ml; trimer 200 uM (FIG. 6)
Method: FIG. 6. […] Aggregation of tau^187 (50 uM) was initiated with heparin (0.1 mg/ml) in 20 mM NaPO4, pH 7.0. in the presence of: no proanthocyanidin (left panel), or 200 uM purified A-type trimer (right panel). Scale: Bars=500 nm
FIG. 13. Effect of oxidized cinnamon on tau filament formation. […] Left panel: no cinnamon; right panel 10 μM oxidized cinnamon.
FIG. 15A. […] 50 μM Tau^187 was incubated with 0.11 mg/ml heparin (18 kDa) at 23° C. Aggregation was monitored by turbidity (OD350). Cinnamaldehyde was present at a final concentration of 0, 50 and 100 μM. FIG. 15B. Electron microscopy of tau fibers in the presence of cinnamaldehyde (CA). Tau fibers were visualized by electron microscopy after 5 hrs of aggregation in the presence of: 0 CA (left panel); B) 100 uM CA (right panel). […] FIG. 15 C. Trans-cinnamaldehyde chemical structure.
Two hexapeptide motifs in tau are critical for tau aggregation and fiber formation (see, e.g. von Bergen et al., Proc Nad Acad Sci USA 97, 5129-34 (2000)). These motifs lie in the first and second inter-repeat regions of the MT binding domain (FIG. 5), and it is known that engineered truncation fragments of tau that contain these motifs often undergo aggregation into fibers even more efficiently than the full-length molecule (see, e.g. Barghorn et al., Biochemistry 41, 14885-96 (2002)). […]

tau = test: Tau aggregation / AD fiber formation in vitro (method not specified)
Sequence of tau (P10636 572-758 limits assumed): as above
Method: In a first illustrative embodiment of an extraction procedure of the invention, an extract is obtained by using nanopure water equal to 10 times the weight of cinnamon. The mixture is heated for 10 minutes at 95° C., cooled, and centrifuged at 14,000 rpm. The nearly clear supernatant is centrifuged again and then the clear supernatant is filtered through 0.4 and 0.2 micron filters and lyophilized. A fluffy pale tan colored powder can be obtained.

A-linked proanthocyanidin trimer [A-type trimer]
FL-tau fibers by EM after aggregation for 45 min (FL-tau): short fibers that were very much less abundant | Inhibition of tau187 aggregation, whole extract vs pure trimer at equal trimer content (tau187 [1]): inhibits tau polypeptide aggregation | Inhibition of tau187 aggregation by EM (tau187 [2]): effectively inhibited | Concentration that completely inhibits tau aggregation in vitro (tau; complete inhibition of tau aggregation/AD fiber formation): 0.17 mg/ml PA trimer | Effectiveness of purified PA trimer relative to CE (tau; same amount of PA trimer, fraction of CE effect): ½
